{"source": "patent US12653862B2", "about": "“Anti-senescence compounds and uses thereof” (CLEARA BIOTECH B.V., priority 2020, dated 2026)", "key": {"[1]": {"assay": "Grey hair in naturally aged mice", "type": "in vivo", "conditions": "24-month old C57BL/6J mice, 3 doses i.v., 4 weeks after first treatment, vs PBS", "excerpt": "24-month old C57BL/6J mice were photographed before receiving 3 doses of either PBS or CL04183 (SEQ ID NO: 55) through i.v. injection. 4 weeks after the first treatment the mice were photographed again."}, "[2]": {"system": "CRC29 colorectal cancer organoid line", "assay": "CRC29 metastasis in liver and lung, human nucleoli staining", "type": "in vivo, mice", "conditions": "3 doses, vs PBS", "experimental": "(§1) Mouse experiments were performed after approval from the Dutch animal ethics committee. For these experiments male NOD.Cg-Prkdc^scid Il2rg^tmlWjl/SzJ/J mice (Charles River) were employed. Human CRC29 colorectal cancer organoids containing firefly luciferase were implanted into the caecum, resulting in the formation of a primary tumor at this site. The implantation was performed under ketamine and dexmedetomidine anaesthesia. In addition, the animals received carpofen 30 min before surgery and the day after. 14 days after transplantation, the mice were sedated using isoflurane and imaged under the BioSpace Imager. Subsequently, The animals were treated with either PBS or with ′5-Fluorouracil (5-FU) at a dose of 50 mg/kg via i.p. injection. The first dose of CL04183 (2.5 mg/kg) was administered via i.v. injection 1 week after 5-FU treatment and this treatment was repeated 2 and 4 days later. 4 weeks after transplantation, the mice were imaged again to determine treatment effect and subsequently sacrificed. All organs were harvested and imaged under the BioSpace Imager again and the luciferase signal was quantified using the M3 vision software.\nLiver and lung paraffin sections were rehydrated in decreasing concentrations of ethanol before being washed in TBS and boiled for 20 minutes in 10 mM sodium citrate buffer (PH6) for antigen unmasking. […]"}, "[3]": {"system": "NRAS mutated and BRAF mutated melanoma", "assay": "Efficacy against melanoma", "type": "cell-based"}, "[4]": {"assay": "Peptide stability in solution", "type": "physicochemical", "experimental": "Both peptides were dissolved in H2O and kept at room temperature. The peptide concentration was determined for the indicated time points."}, "[5]": {"system": "WT colon and tumor progression (TPO) organoids", "assay": "Cell viability of WT colon and tumor progression (TPO) organoids", "type": "cell-based", "conditions": "increasing concentrations, measured 5 days later", "experimental": "(§2) Organoids were grown at 37° C. and 5% CO2 in a humidified incubator. All organoids were cultured in matrigel (Corning) droplets in advanced DMEM/F12 (Lonza) supplemented with 1% glutamax, 1% Penicillin/Streptomycin, 1% (10 mM) HEPES, 10% Noggin conditioned medium, 2% B-27 (50×; (Thermo/Life Technologies), N-acetylcysteine ((Sigma-Aldrich, 1.25 mM)), A83-01 (Tocris, 500 nM) and SB203580 (Invitrogen/Life Technologies, 3 μM). To perform viability and apoptosis assays, the organoids were passaged through resuspension in ice-cold medium, followed by centrifugation in 15 ml tubes at 4° C. The resulting pellet was trypsinized for 5 minutes at 37° C. to obtain single cells and subsequently washed twice with advanced DMEM/F12 media. These cells were then resuspended in Matrigel and plated in 96-well plates in 5 ul droplets. 100 ul fresh medium was added to the wells 15 minutes later. Peptide and chemotherapy treatment was added to the organoids 2 days after plating."}, "[6]": {"system": "CRC29 colorectal cancer organoids", "assay": "Apoptosis and viability in patient-derived colorectal cancer organoid line CRC29", "type": "cell-based, Human", "experimental": "as §2\nA Live/dead assay was performed on both larger organoids 3 days after peptide and/or chemotherapy treatment, or on organoids that were treated as single cells and allowed to grow out for 2 weeks before the assay was performed. […] The organoids were then imaged on a Zeiss Cell Observer microscope and the signal was quantified using FIJI. […]"}, "[7]": {"system": "triple negative breast cancer lines", "assay": "MTS cell viability in human breast cancer cell lines", "type": "cell-based", "conditions": "increasing concentrations, 2 days"}, "CRC29 lung metastases": {"system": "CRC29 lung metastases", "assay": "TUNEL assay on CRC29 lung metastases", "type": "in vivo, mice", "conditions": "vs PBS", "experimental": "as §1\nA TUNEL assay was performed on lung metastases to determine apoptosis induction after treatment. […] Images were acquired using a LSM880 confocal microscope (Zeiss) and the percentage of TUNEL-positive cells was analysed using FIJI."}, "RPE1 cells": {"system": "RPE1 cells", "assay": "Senescent vs ctrl human RPE1 cells", "type": "cell-based", "conditions": "vs FOXO4-DRI (CL03001) within one experiment", "experimental": "Human IMR90, WI38 and RPE cells were grown in Dulbecco's Modified Eagle's Medium (DMEM; Lonza) containing 10% FCS and 1% pen/strep at 37° C. with 3.0% 02 and 5.0% CO2. To induce senescence, cells were irradiated with 10Gy ionizing radiation (Gammacell 1000) and were left for a minimum of 10 days to become senescent.\nTo perform viability and apoptosis assays, cells were split into 96-well plates and treated with peptides 2 days later. Non-senescent and cancer cells were plated 1500 cells/well, while senescent cells were plated at 8.000 cells/well."}, "[8]": {"system": "CRC29 colorectal cancer organoid line", "assay": "Bioluminescence of luciferase-expressing CRC29 transplanted in the caecum of immunodeficient mice", "type": "in vivo", "conditions": "3 doses, imaged two days after last dose, vs PBS", "experimental": "as §1"}}}
{"sequence": "AKIEAAILDAFSQNWRKRRRRQRRKKRG [CL04183]", "values": [{"measurement": "grey hair", "setting": "[1]", "result": "reduces grey hair"}, {"measurement": "colorectal cancer metastasis in liver and lung", "setting": "[2]", "result": "reduces colorectal cancer metastasis in liver and lung"}, {"measurement": "efficacy against melanoma", "setting": "[3]", "result": "efficacy against NRAS mutated and BRAF mutated melanoma"}, {"measurement": "stability in solution", "setting": "[4]", "result": "superior stability"}, {"measurement": "cell viability, sensitivity of organoids with colorectal cancer associated mutations", "setting": "[5]", "result": "sensitizes to FOXO4-based peptides, dependent on p53"}, {"measurement": "apoptosis induction", "setting": "[6]", "result": "potently induces apoptosis"}, {"measurement": "sensitivity of breast cancer cell lines (cell viability, MTS)", "setting": "[7]", "result": "correlating with CL04183 (SEQ ID NO: 55) sensitivity"}, {"measurement": "apoptosis in metastatic cancer cells (TUNEL positive cancer cells)", "setting": "CRC29 lung metastases", "result": "induces apoptosis in metastatic cancer cells in vivo"}, {"measurement": "selectivity and potency in senescent vs ctrl cells", "setting": "RPE1 cells", "result": "superior selectivity and potency"}, {"measurement": "luciferase-expressing colorectal cancer cells (bioluminescence)", "setting": "[8]", "result": "reduces luciferase-expressing colorectal cancer cells in vivo"}]}
